One data set relates to A549 cells. Description: Cytotoxicity assay (AlamarBlue). Particulars: read-out: CC50 (μM), cytotoxic concentration 50%; A549 cell line, 48 h. How it is done:
Cytotoxicity Assay. The cytotoxicity of the compounds was analyzed by commercial kit AlamarBlue® (Invitrogen, Ref. DAL1025). A549 cells at a density of 5×10^3 cells per well in 96-well plates were seeded. […] Cells were then incubated at 37° C. for 48 h following the kit protocol. The cytotoxic concentration 50 (CC50) value was obtained using the statistical package GraphPad Prism. This assay was performed in duplicate.
For orientation: Resazurin is reduced to fluorescent resorufin, in cell work by metabolically active cells.

In another data set the test system is HAdV5-GFP. The data set is described as follows: Plaque assay (inhibition of HAdV plaque formation). The format is cell-based, HAdV-5. Particulars: for Selectivity index (SI): ratio of CC50 to IC50 in plaque assay; for inhibition at 10 µM: read-out: Plaque Assay (%) Inhibition (10 μM); for IC50: read-out: Plaque Assay IC50 (μM), HAdV5-GFP, low MOI, 293β5 cell line. Put shortly: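 Cells at 80-90% confluency infected with HAdV5-GFP at 0.06 vp/cell, rocked 2 h at 37° C, then washed with PBS. Compounds tested at 10 μM and in dose-response from 10 to 0.3 μM, included in the post-infection mixture.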

For `CCCCCCCCC(C)Nc1ccc(NC(=O)c2cc(Cl)ccc2O)c(Cl)c1` (stereo not drawn) [Compound 84, 5-Chloro-N-(2-chloro-4-(decan-2-ylamino)phenyl)-2-hydroxybenzamide], the CC50 with A549 cells turned out to be 21.9 ± 8.9 µM. For the same compound, in the data set with HAdV5-GFP, the “Selectivity index (SI)” value was determined as 18.1, the inhibition at 10 µM came to 100% and the IC50 came to 1.21 ± 0.02 µM.

As to `O=C(Nc1ccc(NCC2CC2)cc1Cl)c1cc(Cl)ccc1O` [Compound 85, 5-Chloro-N-(2-chloro-4-((cyclopropylmethyl)amino)phenyl)-2-hydroxybenzamide], the CC50 in the data set on A549 cells came out at 14.4 µM. Besides, in the data set with HAdV5-GFP, the “Selectivity index (SI)” value amounted to 10.4, the inhibition at 10 µM worked out at 100% and the IC50 worked out at 1.38 µM.

As for `O=C(Nc1ccc(NCC2CCCC2)cc1Cl)c1cc(Cl)ccc1O` [Compound 86, 5-Chloro-N-(2-chloro-4-((cyclopentylmethyl)amino)phenyl)-2-hydroxybenzamide], the CC50 with A549 cells was 21.5 µM. Besides, in the data set on HAdV5-GFP, the “Selectivity index (SI)” value came out at 17.3, the inhibition at 10 µM was found to be 100% and the IC50 came to 1.24 µM.

Take `O=C(Nc1ccc(NC2CCCCC2)cc1Cl)c1cc(Cl)ccc1O` [Compound 88, 5-Chloro-N-(2-chloro-4-(cyclohexylamino)phenyl)-2-hydroxybenzamide]: the CC50 with A549 cells turned out to be 68.3 µM. Further, in the data set on HAdV5-GFP, the “Selectivity index (SI)” value turned out to be 51.1, the inhibition at 10 µM worked out at 99.5 ± 0.7% and the IC50 came to 1.34 µM.

`CN(C)c1ccc(NC(=O)c2cc(Cl)ccc2O)c(Cl)c1` [Compound 89, 5-Chloro-N-(2-chloro-4-(dimethylamino)phenyl)-2-hydroxybenzamide]: in the data set with A549 cells, the CC50 came to 85.1 ± 11.9 µM. Also, in the data set on HAdV5-GFP, the “Selectivity index (SI)” value is on record as 44.3, the inhibition at 10 µM stood at 100% and the 50% inhibitory concentration (IC50) is 1.92 ± 0.23 µM.

Turning to `CCN(CC)c1ccc(NC(=O)c2cc(Cl)ccc2O)c(Cl)c1` [Compound 90, 5-Chloro-N-(2-chloro-4-(diethylamino)phenyl)-2-hydroxybenzamide], the CC50 in the data set with A549 cells stood at 55.5 ± 10.2 µM. In the data set with HAdV5-GFP, the “Selectivity index (SI)” value is listed as 64.5, the inhibition at 10 µM was 100% and the IC50 was found to be 0.86 ± 0.19 µM.

In the case of `CCCN(CCC)c1ccc(NC(=O)c2cc(Cl)ccc2O)c(Cl)c1` [Compound 91, 5-Chloro-N-(2-chloro-4-(dipropylamino)phenyl)-2-hydroxybenzamide], the CC50 in the data set with A549 cells was 10.7 ± 2.1 µM. Also, in the data set on HAdV5-GFP, the “Selectivity index (SI)” value was 16.0, the inhibition at 10 µM was determined as 100% and the IC50 worked out at 0.67 ± 0.03 µM.

`O=C(Nc1ccc(N(CC2CC2)CC2CC2)cc1Cl)c1cc(Cl)ccc1O` [Compound 92, N-(4-(Bis(cyclopropylmethyl)amino)-2-chlorophenyl)-5-chloro-2-hydroxybenzamide]: in the data set with A549 cells, the CC50 is 12.8 ± 4.2 µM. In the data set with HAdV5-GFP, the “Selectivity index (SI)” value amounted to 20.7, the inhibition at 10 µM is 100% and the IC50 was 0.62 ± 0.01 µM.

As to `CC1(ON(c2ccc(NC(=O)c3cc(Cl)ccc3O)c(Cl)c2)C2(C)CCCC2)CCCC1` [Compound 93, 5-Chloro-N-(2-chloro-4-((1-methylcyclopentyl)((1-methylcyclopentyl)oxy)amino)phenyl)-2-hydroxybenzamide], the CC50 in the data set on A549 cells was found to be 18 µM. In the data set on HAdV5-GFP, the “Selectivity index (SI)” value was 24.3, the inhibition at 10 µM came out at 100% and the IC50 was determined as 0.74 µM.

Take `O=C(Nc1ccc(NCc2ccccc2)cc1Cl)c1cc(Cl)ccc1O` [Compound 94, N-(4-(Benzylamino)-2-chlorophenyl)-5-chloro-2-hydroxybenzamide]: the CC50 in the data set with A549 cells was determined as 19.7 ± 2.8 µM. In addition, in the data set on HAdV5-GFP, the “Selectivity index (SI)” value is given as 7.8, the inhibition at 10 µM was found to be 100% and the IC50 came out at 2.52 ± 0.01 µM.

Take `O=C(Nc1ccc(NCc2ccc(F)cc2)cc1Cl)c1cc(Cl)ccc1O` [Compound 95, 5-Chloro-N-(2-chloro-4-((4-fluorobenzyl)amino)phenyl)-2-hydroxybenzamide]: in the data set with A549 cells, the CC50 amounted to 54.4 ± 12.3 µM. In the data set on HAdV5-GFP, the “Selectivity index (SI)” value came out at 16.0, the inhibition at 10 µM was found to be 100% and the IC50 is 3.4 ± 0.54 µM.

For the compound `O=C(Nc1ccc(NCc2ccc(Cl)cc2)cc1Cl)c1cc(Cl)ccc1O` [Compound 96, 5-Chloro-N-(2-chloro-4-((4-chlorobenzyl)amino)phenyl)-2-hydroxybenzamide], the CC50 with A549 cells is 59.7 ± 0.3 µM. Also, in the data set on HAdV5-GFP, the “Selectivity index (SI)” value was determined as 49.7, the inhibition at 10 µM was found to be 100% and the IC50 was 1.2 ± 0.01 µM.

For `O=C(Nc1ccc(NCc2ccc(Br)cc2)cc1Cl)c1cc(Cl)ccc1O` [Compound 97, N-(4-((4-Bromobenzyl)amino)-2-chlorophenyl)-5-chloro-2-hydroxybenzamide], the CC50 in the data set on A549 cells amounted to 40.9 ± 2.2 µM. Further, in the data set on HAdV5-GFP, the “Selectivity index (SI)” value came out at 22.2, the inhibition at 10 µM is 100% and the IC50 came out at 1.84 ± 0.1 µM.

In the case of `O=C(Nc1ccc(NCc2ccc(C(F)(F)F)cc2)cc1Cl)c1cc(Cl)ccc1O` [Compound 98, 5-Chloro-N-(2-chloro-4-((4-(trifluoromethyl)benzyl)amino)phenyl)-2-hydroxybenzamide], the CC50 with A549 cells was determined as 62.7 ± 6.1 µM. Also, in the data set with HAdV5-GFP, the “Selectivity index (SI)” value turned out to be 43.8, the inhibition at 10 µM was 99.6 ± 0.6% and the IC50 is 1.43 ± 0.29 µM.

For the compound `O=C(Nc1ccc(NCc2cccc(C(F)(F)F)c2)cc1Cl)c1cc(Cl)ccc1O` [Compound 99, 5-Chloro-N-(2-chloro-4-((3-(trifluoromethyl)benzyl)amino)phenyl)-2-hydroxybenzamide], the CC50 in the data set on A549 cells was found to be 13.3 ± 6.9 µM. Moreover, in the data set on HAdV5-GFP, the “Selectivity index (SI)” value is given as 15.2, the inhibition at 10 µM was found to be 100% and the IC50 was found to be 0.88 ± 0.4 µM.

Take `COc1ccc(CNc2ccc(NC(=O)c3cc(Cl)ccc3O)c(Cl)c2)cc1` [Compound 100, 5-Chloro-N-(2-chloro-4-((4-methoxybenzyl)amino)phenyl)-2-hydroxybenzamide]: the CC50 with A549 cells turned out to be 80.7 ± 8.2 µM. In the data set on HAdV5-GFP, the “Selectivity index (SI)” value was found to be 22.4, the inhibition at 10 µM turned out to be 100% and the half-maximal inhibitory concentration (IC50) amounted to 3.61 ± 0.4 µM.

For `CN(C)c1ccc(CNc2ccc(NC(=O)c3cc(Cl)ccc3O)c(Cl)c2)cc1` [Compound 102, 5-Chloro-N-(2-chloro-4-((4-(dimethylamino)benzyl)amino)phenyl)-2-hydroxybenzamide], the CC50 in the data set on A549 cells was found to be 24.5 ± 3.5 µM. For the same compound, in the data set with HAdV5-GFP, the “Selectivity index (SI)” value is given as 9.0, the inhibition at 10 µM was 100% and the IC50 amounted to 2.73 ± 0.26 µM.

As to `O=C(Nc1ccc(NCc2cc(F)cc(Cl)c2)cc1Cl)c1cc(Cl)ccc1O` [Compound 103, 5-Chloro-N-(2-chloro-4-((3-chloro-5-fluorobenzyl)amino)phenyl)-2-hydroxybenzamide], the CC50 in the data set with A549 cells was found to be 11.1 ± 0.7 µM. For the same compound, in the data set with HAdV5-GFP, the “Selectivity index (SI)” value turned out to be 8.7, the inhibition at 10 µM came to 98.8 ± 0.6% and the IC50 came out at 1.28 ± 0.02 µM.

Turning to `O=C(Nc1ccc(NCc2cc(Cl)cc(Cl)c2)cc1Cl)c1cc(Cl)ccc1O` [Compound 104, 5-Chloro-N-(2-chloro-4-((3,5-dichlorobenzyl)amino)phenyl)-2-hydroxybenzamide], the CC50 in the data set on A549 cells came out at 13.3 ± 7.6 µM. Also, in the data set on HAdV5-GFP, the “Selectivity index (SI)” value was found to be 9.3, the inhibition at 10 µM turned out to be 100% and the IC50 was found to be 1.43 ± 0.17 µM.

With `O=C(Nc1ccc(NCc2cc(Cl)cc(C(F)(F)F)c2)cc1Cl)c1cc(Cl)ccc1O` [Compound 105, 5-Chloro-N-(2-chloro-4-((3-chloro-5-(trifluoromethyl)benzyl)amino)phenyl)-2-hydroxybenzamide], the CC50 in the data set with A549 cells was found to be 30.9 ± 0.8 µM. Also, in the data set with HAdV5-GFP, the “Selectivity index (SI)” value was 17.3, the inhibition at 10 µM turned out to be 99.3 ± 1% and the IC50 stood at 1.79 ± 0.16 µM.

In the case of `O=C(Nc1ccc(NCc2cc(F)cc(C(F)(F)F)c2)cc1Cl)c1cc(Cl)ccc1O` [Compound 106, 5-Chloro-N-(2-chloro-4-((3-fluoro-5-(trifluoromethyl)benzyl)amino)phenyl)-2-hydroxybenzamide], the CC50 with A549 cells is 30.9 ± 4.8 µM. Further, in the data set with HAdV5-GFP, the “Selectivity index (SI)” value is given as 26.7, the inhibition at 10 µM was 100% and the IC50 turned out to be 1.16 ± 0.13 µM.

`O=C(Nc1ccc(NCc2cc(C(F)(F)F)cc(C(F)(F)F)c2)cc1Cl)c1cc(Cl)ccc1O` [Compound 107, N-(4-((3,5-Bis(trifluoromethyl)benzyl)amino)-2-chlorophenyl)-5-chloro-2-hydroxybenzamide]: the CC50 in the data set on A549 cells amounted to 92.8 µM. In addition, in the data set with HAdV5-GFP, the “Selectivity index (SI)” value was 82.9, the inhibition at 10 µM amounted to 100% and the concentration for half-maximal inhibition (IC50) is 1.12 ± 0.49 µM.

For `O=C(Nc1ccc(NCc2ccc(Br)s2)cc1Cl)c1cc(Cl)ccc1O` [Compound 113, N-(4-(((5-Bromothiophen-2-yl)methyl)amino)-2-chlorophenyl)-5-chloro-2-hydroxybenzamide], in the data set on A549 cells, the CC50 turned out to be 20.7 ± 4.6 µM. In the data set with HAdV5-GFP, the “Selectivity index (SI)” value is listed as 8.0, the inhibition at 10 µM amounted to 100% and the IC50 is 2.58 µM.

Take `O=C(Nc1ccc(NCc2ccc3cn[nH]c3c2)cc1Cl)c1cc(Cl)ccc1O` [Compound 114, N-(4-(((1H-Indazol-6-yl)methyl)amino)-2-chlorophenyl)-5-chloro-2-hydroxybenzamide]: in the data set on A549 cells, the CC50 was found to be 45.3 ± 0.4 µM. Moreover, in the data set on HAdV5-GFP, the “Selectivity index (SI)” value is recorded as 9.7, the inhibition at 10 µM was found to be 98 ± 0.7% and the IC50 turned out to be 4.65 µM.

Turning to `O=C(Nc1ccc(NCCCO)cc1Cl)c1cc(Cl)ccc1O` [Compound 120, 5-Chloro-N-(2-chloro-4-((3-hydroxypropyl)amino)phenyl)-2-hydroxybenzamide], the CC50 with A549 cells is 106 µM. Moreover, the inhibition at 10 µM in the data set with HAdV5-GFP stood at 36 ± 4.2%. Further, the “Plaque Assay (%) Inhibition (10 μM)” value in the data set on HAdV5-GFP ({}) is “inactive”.

The inhibition is the change of the read-out against control, counted positive when it falls. By IC50 is commonly meant the concentration at which inhibition is half-maximal.

Source of the values: patent US20230140290A1, “SALICYLAMIDE DERIVATIVES AND RELATED METHODS OF MAKING” (THE BOARD OF REGENTS OF THE UNIVERSITY OF TEXAS SY, priority 2020, published 2023).
